Square brackets hold non-standard residues; d marks the D form. Peptide text beside a SMILES is read from it. * marks the point of attachment. Bip = N[C@@H](Cc1ccc(-c2ccccc2)cc1)C(=O)O; dBip = N[C@H](Cc1ccc(-c2ccccc2)cc1)C(=O)O; dPhe(4-I) = N[C@H](Cc1ccc(I)cc1)C(=O)O; 2Nal = N[C@@H](Cc1ccc2ccccc2c1)C(=O)O; 3Pal = N[C@@H](Cc1cccnc1)C(=O)O; 4Pal = N[C@@H](Cc1ccncc1)C(=O)O; Tic = O=C(O)[C@@H]1Cc2ccccc2CN1; Octanoyl = CCCCCCCC(=O)*
Key:
Type in all cases: cell-based
mMC3R [1] = molecular target: T1, mMC3R (Mus musculus, UniProt P33033); assay: cell-based
mMC4R [2] = molecular target: T2, mMC4R (Mus musculus, UniProt P56450); assay: CRE/β-galactosidase reporter gene bioassay, agonist activity at mMC4R; conditions: for mMC4R relative percentage of stimulation at 100 μM: ligand at 100 μM, compared to maximal response generated by α-MSH; for mMC4R Fold Diff.: fold difference in EC50 vs peptide 1, negative prefix = more potent than 1
mMC1R = mMC1R (Mus musculus, UniProt Q01727); assay: CRE/β-galactosidase reporter gene bioassay, agonist activity at mMC1R; conditions: for mMC1R pharmacology in words: comparisons are to reference peptide 1; for EC50: mMC1R EC50, agonist, HEK-293 cells stably expressing receptor, ±SEM; for mMC1R Fold Diff: fold difference in EC50 vs peptide 1, negative prefix = more potent than 1
mMC5R = mMC5R (Mus musculus, UniProt P41149); assay: CRE/β-galactosidase reporter gene bioassay, agonist activity at mMC5R; conditions: for mMC5R pharmacology in words: comparisons are to reference peptide 1; for mMC5R Fold Diff.: fold difference in EC50 vs peptide 1, negative prefix = more potent than 1
mMC4R [3] = molecular target: T2, mMC4R; assay: Antagonist Schild analysis against agonist MTII at mMC4R; conditions: for mMC4R pharmacology class printed in Fold Diff. column (Ant, SA): Ant = antagonist, SA = some stimulatory activity at 100 µM
mMC3R [4] = molecular target: T1, mMC3R; assay: Antagonist Schild analysis against agonist MTII at mMC3R; conditions: for mMC3R pharmacology class printed in Fold Diff column (Ant, SA): Ant = antagonist, SA = some stimulatory activity at 100 µM
[5] = ligand at 100 μM, compared to maximal response generated by α-MSH

T2 sequence (P56450 whole entry): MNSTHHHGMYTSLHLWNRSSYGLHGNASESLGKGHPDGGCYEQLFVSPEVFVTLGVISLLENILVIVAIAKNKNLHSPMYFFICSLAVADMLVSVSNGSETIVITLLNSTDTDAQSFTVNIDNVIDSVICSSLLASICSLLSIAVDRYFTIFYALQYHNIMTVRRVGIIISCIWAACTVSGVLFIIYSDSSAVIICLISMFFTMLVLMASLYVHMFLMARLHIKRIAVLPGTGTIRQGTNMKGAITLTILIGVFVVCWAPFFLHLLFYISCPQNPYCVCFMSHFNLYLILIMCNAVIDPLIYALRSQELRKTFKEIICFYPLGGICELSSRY
Chain of mMC5R (P41149 whole entry): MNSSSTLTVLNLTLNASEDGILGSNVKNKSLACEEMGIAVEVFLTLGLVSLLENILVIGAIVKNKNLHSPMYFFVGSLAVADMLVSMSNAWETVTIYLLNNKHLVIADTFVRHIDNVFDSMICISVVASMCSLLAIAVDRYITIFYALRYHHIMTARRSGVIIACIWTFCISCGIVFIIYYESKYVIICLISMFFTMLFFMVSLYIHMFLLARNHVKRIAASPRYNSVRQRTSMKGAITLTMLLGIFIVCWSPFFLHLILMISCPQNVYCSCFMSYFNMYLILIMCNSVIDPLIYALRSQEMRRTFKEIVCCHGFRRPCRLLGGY
Chain of mMC1R (Q01727 whole entry): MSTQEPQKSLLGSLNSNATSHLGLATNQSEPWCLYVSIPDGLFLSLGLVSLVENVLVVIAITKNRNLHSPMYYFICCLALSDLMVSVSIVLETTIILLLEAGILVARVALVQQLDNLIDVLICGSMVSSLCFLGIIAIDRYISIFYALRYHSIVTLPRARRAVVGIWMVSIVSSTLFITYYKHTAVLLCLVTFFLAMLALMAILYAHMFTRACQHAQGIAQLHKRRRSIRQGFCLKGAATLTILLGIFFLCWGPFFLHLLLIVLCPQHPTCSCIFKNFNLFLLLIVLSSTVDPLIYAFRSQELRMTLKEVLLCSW
T1 sequence (P33033 whole entry): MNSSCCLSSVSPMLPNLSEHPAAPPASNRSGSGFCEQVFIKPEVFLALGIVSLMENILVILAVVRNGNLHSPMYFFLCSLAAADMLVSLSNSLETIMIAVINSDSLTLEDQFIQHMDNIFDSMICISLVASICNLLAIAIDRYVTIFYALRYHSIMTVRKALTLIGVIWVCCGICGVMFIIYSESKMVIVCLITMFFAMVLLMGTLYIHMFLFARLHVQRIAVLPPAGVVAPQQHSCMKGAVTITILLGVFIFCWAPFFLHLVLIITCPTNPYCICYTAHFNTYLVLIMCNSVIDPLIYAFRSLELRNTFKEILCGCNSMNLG

Compound	mMC3R relative percentage of stimulation at 100 μM (mMC3R [1]; 100000.0)	mMC4R relative percentage of stimulation at 100 μM (mMC4R [2])	mMC1R pharmacology in words (mMC1R)	mMC5R pharmacology in words (mMC5R)	mMC5R Fold Diff. (mMC5R)	mMC4R pharmacology class printed in Fold Diff. column (Ant, SA) (mMC4R [3])	EC50 (mMC1R)	EC50 (mMC5R)	Kb (mMC4R [3])	EC50 (mMC4R [2])	mMC4R Fold Diff. (mMC4R [2])	mMC1R Fold Diff (mMC1R)	Kb (mMC3R [4])	mMC3R pharmacology class printed in Fold Diff column (Ant, SA) (mMC3R [4])	also measured
CCCCCCCC(=O)N[C@@H](Cc1c[nH]cn1)C(=O)N[C@H](Cc1ccccc1)C(=O)N[C@@H](CCCNC(=N)N)C(=O)N[C@@H](Cc1ccc(-c2ccccc2)cc1)C(N)=O [Peptide 2, Octanoyl-His-DPhe-Arg-Bip-NH2] (Octanoyl-H[dF]R[Bip]-NH2)	50%−65%	40%	equipotent	decreased potencies	12	Ant									
CCCCCCCC(=O)N[C@@H](Cc1cnc[nH]1)C(=O)N[C@H](Cc1ccccc1)C(=O)N[C@@H](CCCNC(=N)N)C(=O)N[C@@H](Cc1ccc(-c2ccccc2)cc1)C(N)=O [Peptide 2, Octanoyl-His-DPhe-Arg-Bip-NH2] (Octanoyl-H[dF]R[Bip]-NH2)							45 ± 12 nM	62 ± 4 nM	100 nM						
CCCCCCCC(=O)N[C@@H](Cc1c[nH]cn1)C(=O)N[C@H](Cc1ccc(-c2ccccc2)cc1)C(=O)N[C@@H](CCCNC(=N)N)C(=O)N[C@@H](Cc1c[nH]c2ccccc12)C(N)=O [Peptide 7, Octanoyl-His-DBip-Arg-Trp-NH2]	50%−65%			equipotent			3.7 ± 0.9 nM	15 ± 4 nM		500 ± 200 nM	36	−40	63.1 nM	Ant	mMC3R relative percentage of stimulation at 100 μM (mMC3R [1]; [5]): 60%; mMC1R fold difference in EC50, more potent than reference peptide 1 (mMC1R; more potent agonist than 1): 40 fold
CCCCCCCC(=O)N[C@@H](Cc1c[nH]cn1)C(=O)N[C@H](Cc1ccccc1)C(=O)N[C@@H](CCCNC(=N)N)C(=O)N[C@H](Cc1ccc(-c2ccccc2)cc1)C(N)=O [Peptide 8, Octanoyl-His-DPhe-Arg-DBip-NH2] (Octanoyl-H[dF]R[dBip]-NH2)			equipotent	decreased potencies	6	Ant	180 ± 20 nM	31 ± 3 nM	50.1 nM				316 nM	Ant	
CC(=O)N[C@@H](Cc1cccnc1)C(=O)N[C@H](Cc1ccc(I)cc1)C(=O)N[C@@H](CCCNC(=N)N)C(=O)N[C@@H](Cc1c[nH]c2ccccc12)C(N)=O [Peptide 12, Ac-3PAL-(pI)DPhe-Arg-Trp-NH2] (Ac-[3Pal][dPhe(4-I)]RW-NH2)		35%			3340	SA Ant	4800 ± 1400 nM	18000 ± 3000 nM	5.01 nM			34	100 nM	Ant	mMC5R fold less potent than peptide 1 (mMC5R; less potent than 1): 3300 fold
CC(=O)N[C@@H](Cc1ccncc1)C(=O)N[C@H](Cc1ccc(I)cc1)C(=O)N[C@@H](CCCNC(=N)N)C(=O)N[C@@H](Cc1c[nH]c2ccccc12)C(N)=O [Peptide 16, Ac-4PAL-(pI)DPhe-Arg-Trp-NH2] (Ac-[4Pal][dPhe(4-I)]RW-NH2)					114	Ant	2900 ± 1500 nM	610 ± 250 nM	1.26 nM			20	79.4 nM	Ant	fold preference for the mMC4R versus mMC3R (mMC4R [3]; antagonist): 66 fold
CC(=O)N[C@@H](Cc1ccc(-c2ccccc2)cc1)C(=O)N[C@H](Cc1ccc(I)cc1)C(=O)N[C@@H](CCCNC(=N)N)C(=O)N[C@@H](Cc1c[nH]c2ccccc12)C(N)=O [Peptide 17, Ac-Bip-(pI)DPhe-Arg-Trp-NH2] (Ac-[Bip][dPhe(4-I)]RW-NH2)					83	Ant	5200 ± 1700 nM	440 ± 70 nM	79.4 nM			37	631 nM	Ant	
CC(=O)N[C@@H](Cc1c[nH]c2ccccc12)C(=O)N[C@H](Cc1ccc(-c2ccccc2)cc1)C(=O)N[C@@H](CCCNC(=N)N)C(=O)N[C@@H](Cc1c[nH]c2ccccc12)C(N)=O [Peptide 18, Ac-Trp-DBip-Arg-Trp-NH2] (Ac-W[dBip]RW-NH2)		45%	non-selective mMC1R and mMC5R micromolar agonist profile	non-selective mMC1R and mMC5R micromolar agonist profile	340	SA Ant	1800 ± 1000 nM	1800 ± 1300 nM	100 nM			13	200 nM	Ant	
CC(=O)N[C@@H](Cc1ccncc1)C(=O)N[C@H](Cc1ccc(-c2ccccc2)cc1)C(=O)N[C@@H](CCCNC(=N)N)C(=O)N[C@@H](Cc1c[nH]c2ccccc12)C(N)=O [Peptide 22, Ac-4PAL-DBip-Arg-Trp-NH2] (Ac-[4Pal][dBip]RW-NH2)	45%				235		1900 ± 720 nM	1300 ± 300 nM		1300 ± 200 nM	92	14	316 nM	SA Ant	
CC(=O)N[C@@H](Cc1c[nH]cn1)C(=O)N[C@H](Cc1ccc(I)cc1)C(=O)N[C@@H](CCCNC(=N)N)C(=O)N1Cc2ccccc2C[C@H]1C(N)=O [Peptide 31, Ac-His-(pI)DPhe-Arg-Tic-NH2] (Ac-H[dPhe(4-I)]R[Tic]-NH2)			more potent	less potent	25		24 ± 4 nM	130 ± 30 nM		640 ± 60 nM	46	−6			EC50 (mMC3R [1]): 2900 ± 400 nM; mMC3R Fold Diff (mMC3R [1]; fold difference in EC50 vs peptide 1, negative prefix = more potent than 1): 5; selectivity for the mMC1R, fold difference as compared to the mMC3R (mMC1R; agonist EC50): 120 fold; selectivity for the mMC1R, fold difference as compared to the mMC4R (mMC1R; agonist EC50): 26 fold; selectivity for the mMC1R, fold difference as compared to the mMC5R (mMC1R; agonist EC50): 6 fold
CC(=O)N[C@@H](Cc1c[nH]cn1)C(=O)N[C@H](Cc1ccc(I)cc1)C(=O)N[C@@H](CCCNC(=N)N)C(=O)N[C@@H](Cc1ccccc1)C(N)=O [Peptide 32, Ac-His-(pI)DPhe-Arg-Phe-NH2] (Ac-H[dPhe(4-I)]RF-NH2)				equipotent agonists			91 ± 13 nM	18.4 ± 5.7 nM		80 ± 7 nM	6				mMC3R relative percentage of stimulation at 100 μM (mMC3R [1]; [5]): 60% at 100 μM
CC(=O)N[C@@H](Cc1c[nH]cn1)C(=O)N[C@H](Cc1ccc(-c2ccccc2)cc1)C(=O)N[C@@H](CCCNC(=N)N)C(=O)N[C@@H](Cc1ccc(-c2ccccc2)cc1)C(N)=O [Peptide 33, Ac-His-DBip-Arg-Bip-NH2] (Ac-H[dBip]R[Bip]-NH2)		30%	more potent	less potent	6	Ant	15.8 ± 6.1 nM	31.2 ± 4.7 nM	158 nM			−9	501 nM	Ant	
CC(=O)N[C@@H](Cc1c[nH]cn1)C(=O)N[C@H](Cc1ccc(-c2ccccc2)cc1)C(=O)N[C@@H](CCCNC(=N)N)C(=O)N[C@@H](Cc1ccc2ccccc2c1)C(N)=O [Peptide 36, Ac-His-DBip-Arg-Nal(2’)-NH2] (Ac-H[dBip]R[2Nal]-NH2)	50%		more potent	less potent	4		17 ± 5.4 nM	20.7 ± 4.1 nM		52 ± 18 nM	4	−8	25.1 nM	SA Ant	

Reference: publication PMC6261661 (ACS chemical neuroscience, 2018)
